Measurements reported in patent US20240366598A1, “GLUCOSE-DEPENDENT INSULINOTROPIC POLYPEPTIDE RECEPTOR ANTAGONISTS AND USES THEREOF” (Pfizer Inc., priority 2023, published 2024).

Biological target: T1, human Glucose-dependent Insulinotropic Polypeptide Receptor (hGIPR) (Homo sapiens, UniProt P48546)
T1 sequence (P48546 22-466): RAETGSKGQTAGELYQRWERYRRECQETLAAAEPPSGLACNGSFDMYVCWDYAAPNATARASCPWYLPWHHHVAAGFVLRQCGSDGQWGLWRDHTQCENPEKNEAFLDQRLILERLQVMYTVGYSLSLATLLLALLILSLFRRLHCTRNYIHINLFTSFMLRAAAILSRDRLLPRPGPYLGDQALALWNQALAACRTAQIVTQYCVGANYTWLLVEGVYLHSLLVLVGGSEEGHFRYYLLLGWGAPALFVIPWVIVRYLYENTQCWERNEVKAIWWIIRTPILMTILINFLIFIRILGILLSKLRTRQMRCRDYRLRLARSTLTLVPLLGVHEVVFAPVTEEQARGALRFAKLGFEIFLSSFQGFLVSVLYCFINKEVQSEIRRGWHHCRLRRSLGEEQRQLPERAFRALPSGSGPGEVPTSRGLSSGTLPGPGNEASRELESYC
Assay: Functional in vitro GIPR antagonist potency assay (cAMP HTRF, CHO-K1 cells stably expressing hGIPR, hGIP stimulation at about EC80)
Assay type: cell-based
Conditions: geometric mean, hGIP at estimated EC80, examples marked ^2: overall geometric mean of multiple forms (including salts) tested
Method in brief: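 CHO-K1 cells expressing hGIPR (2,000 per well) in HBSS/HEPES/0.1% BSA with 200 μM IBMX were preincubated 2 h at 37 °C with an 11-point compound series (0.5% DMSO). hGIP at about EC80 was then added for 30 min, and cAMP was read by HTRF (665/620 nm). Data were normalized between hGIP alone and full antagonism by a reference antagonist at 80 μM.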

Compound | IC50 [nM]
COc1nc(C(=O)O)ccc1-c1ccc(NC(=O)[C@H]2CCCN2C(=O)Nc2ccc(C(C)C)cc2)cc1 [Example 120, 6-methoxy-5-{4-[(1-{[4-(propan-2-yl)phenyl]carbamoyl}-D-prolyl)amino]phenyl}pyridine-2-carboxylic acid] | 26
CC(C)c1ccc(NC(=O)N2CCC[C@@H]2C(=O)Nc2cnc(-c3ccc(C(=O)O)cc3)cn2)cc1 [Example 121, 4-{5-[(1-{[4-(propan-2-yl)phenyl]carbamoyl}-D-prolyl)amino]pyrazin-2-yl}benzoic acid] | 27
O=C(O)c1ccc(-c2ccc(NC(=O)[C@H]3CCCN3C(=O)Nc3ccc(C4CC4)cc3)cc2)cn1 [Example 122, 5-[4-({1-[(4-cyclopropylphenyl)carbamoyl]-D-prolyl}amino)phenyl]pyridine-2-carboxylic acid] | 99
O=C(O)c1ccc(-c2ccc(NC(=O)[C@H]3CCCN3C(=O)NCc3ccc(F)c(Cl)c3)cc2)cc1 [Example 124, 4′-[(1-{[(3-chloro-4-fluorophenyl)methyl]carbamoyl}-D-prolyl)amino][1,1′-biphenyl]-4-carboxylic acid] | 74
CC(C)c1ccc(CNC(=O)N2CCC[C@@H]2C(=O)Nc2ccc(-c3ccc(C(=O)O)cc3)cc2)c(F)c1 [Example 127, 4′-{[1-({[2-fluoro-4-(propan-2-yl)phenyl]methyl}carbamoyl)-D-prolyl]amino}[1,1′-biphenyl]-4-carboxylic acid] | 69
O=C(O)c1ccc(-c2ccc(NC(=O)[C@H]3CCCN3C(=O)NCc3ccc(C(F)(F)F)cc3F)cc2)cc1 [Example 131, 4′-{[1-({[2-fluoro-4-(trifluoromethyl)phenyl]methyl}carbamoyl)-D-prolyl]amino}[1,1′-biphenyl]-4-carboxylic acid] | 140
O=C(O)c1ccc(-c2ccc(NC(=O)[C@H]3CCCN3C(=O)NCc3ccc(Cl)cc3F)cc2)cc1 [Example 132, 4′-[(1-{[(4-chloro-2-fluorophenyl)methyl]carbamoyl}-D-prolyl)amino][1,1′-biphenyl]-4-carboxylic acid] | 77
O=C(O)c1ccc(-c2ccc(NC(=O)[C@H]3CCCN3C(=O)NCc3c(F)cc(Cl)cc3F)cc2)cc1 [Example 133, 4′-[(1-{[(4-chloro-2,6-difluorophenyl)methyl]carbamoyl}-D-prolyl)amino][1,1′-biphenyl]-4-carboxylic acid] | 180
COc1cc(C(F)(F)F)ccc1NC(=O)N1CCC[C@@H]1C(=O)Nc1ccc(-c2ccc(C(=O)O)cc2)cc1 [Example 134, 4′-[(1-{[2-methoxy-4-(trifluoromethyl)phenyl]carbamoyl}-D-prolyl)amino][1,1′-biphenyl]-4-carboxylic acid] | 140
CC(C)c1ccc(NC(=O)N2CCC[C@@H]2C(=O)Nc2ccc(-c3ccc(C(=O)O)cc3)cc2)c(Cl)c1 [Example 135, 4′-[(1-{[2-chloro-4-(propan-2-yl)phenyl]carbamoyl}-D-prolyl)amino][1,1′-biphenyl]-4-carboxylic acid] | 52
O=C(O)c1ccc(-c2ccc(NC(=O)[C@H]3CCCN3C(=O)NCc3cc(F)c(Cl)cc3F)cc2)cc1 [Example 138, 4′-[(1-{[(4-chloro-2,5-difluorophenyl)methyl]carbamoyl}-D-prolyl)amino][1,1′-biphenyl]-4-carboxylic acid] | 42
O=C(O)c1ccc(-c2ccc(NC(=O)[C@H]3CCCN3C(=O)NCc3ccc(C(F)(F)F)cc3Cl)cc2)cc1 [Example 139, 4′-{[1-({[2-chloro-4-(trifluoromethyl)phenyl]methyl}carbamoyl)-D-prolyl]amino}[1,1′-biphenyl]-4-carboxylic acid] | 93
O=C(O)c1ccc(-c2ccc(NC(=O)[C@H]3CCCN3C(=O)Nc3ccc(C4CC4)cc3F)cc2)cc1 [Example 140, 4′-({1-[(4-cyclopropyl-2-fluorophenyl)carbamoyl]-D-prolyl}amino)[1,1′-biphenyl]-4-carboxylic acid] | 67
O=C(O)c1ccc(-c2ccc(NC(=O)[C@H]3CCCN3C(=O)NCc3ccc(C(F)F)cc3)cc2)cc1 [Example 141, 4′-{[1-({[4-(difluoromethyl)phenyl]methyl}carbamoyl)-D-prolyl]amino}[1,1′-biphenyl]-4-carboxylic acid] | 97
Cc1cc(C2CC2)ccc1NC(=O)N1CCC[C@@H]1C(=O)Nc1ccc(-c2ccc(C(=O)O)cc2)cc1 [Example 142, 4′-({1-[(4-cyclopropyl-2-methylphenyl)carbamoyl]-D-prolyl}amino)[1,1′-biphenyl]-4-carboxylic acid] | 130
COc1cc(NC(=O)N2CCC[C@@H]2C(=O)Nc2ccc(-c3ccc(C(=O)O)cc3)cc2)ccc1C(F)(F)F [Example 143, 4′-[(1-{[3-methoxy-4-(trifluoromethyl)phenyl]carbamoyl}-D-prolyl)amino][1,1′-biphenyl]-4-carboxylic acid] | 35

More lines, now with the values ahead:

IC50 [nM] | Compound
4.8 | O=C(O)c1ccc(-c2ccc(NC(=O)[C@H]3CCCN3C(=O)Nc3ccc(C4CCCC4)cc3)cc2)cc1 [Example 115, 4′-({1-[(4-cyclopentylphenyl)carbamoyl]-D-prolyl}amino)[1,1′-biphenyl]-4-carboxylic acid]
12 | O=C(O)c1ccc(-c2ccc(NC(=O)[C@H]3CCCN3C(=O)NCc3ccc(Cl)c(Cl)c3)cc2)cc1 [Example 116, 4′-[(1-{[(3,4-dichlorophenyl)methyl]carbamoyl}-D-prolyl)amino][1,1′-biphenyl]-4-carboxylic acid]
26 | CC(C)c1ccc(NC(=O)N2CCC[C@@H]2C(=O)Nc2ccc(-c3ccc(C(=O)O)cc3)cc2)c(F)c1 [Example 117, 4′-[(1-{[2-fluoro-4-(propan-2-yl)phenyl]carbamoyl}-D-prolyl)amino][1,1′-biphenyl]-4-carboxylic acid]
15 | CCc1ccc(NC(=O)N2CCC[C@@H]2C(=O)Nc2ccc(-c3ccc(C(=O)O)cc3)cc2)cc1 [Example 118, 4′-({1-[(4-ethylphenyl)carbamoyl]-D-prolyl}amino)[1,1′-biphenyl]-4-carboxylic acid]
24 | CC(C)(C)c1ccc(NC(=O)N2CCC[C@@H]2C(=O)Nc2ccc(-c3ccc(C(=O)O)cc3)cc2)cc1 [Example 119, 4′-({1-[(4-tert-butylphenyl)carbamoyl]-D-prolyl}amino)[1,1′-biphenyl]-4-carboxylic acid]
11 | CC(C)c1ccc(NC(=O)N2C[C@H]3C[C@H]3[C@@H]2C(=O)Nc2ccc(-c3ccc(C(=O)O)cc3)cn2)cc1 [Example 123, 4-(6-{[(1R,2R,5S)-3-{[4-(propan-2-yl)phenyl]carbamoyl}-3-azabicyclo[3.1.0]hexane-2-carbonyl]amino}pyridin-3-yl)benzoic acid]
19 | CC(C)(C)c1ccc(CNC(=O)N2CCC[C@@H]2C(=O)Nc2ccc(-c3ccc(C(=O)O)cc3)cc2)cc1 [Example 125, 4′-[(1-{[(4-tert-butylphenyl)methyl]carbamoyl}-D-prolyl)amino][1,1′-biphenyl]-4-carboxylic acid]
6.6 | O=C(O)c1ccc(-c2ccc(NC(=O)[C@H]3CCCN3C(=O)NCc3ccc(C(F)(F)F)c(F)c3)cc2)cc1 [Example 126, 4′-{[1-({[3-fluoro-4-(trifluoromethyl)phenyl]methyl}carbamoyl)-D-prolyl]amino}[1,1′-biphenyl]-4-carboxylic acid]
9.3 | O=C(O)c1ccc(-c2ccc(NC(=O)[C@H]3CCCN3C(=O)Nc3cc(F)c(C(F)(F)F)c(F)c3)cc2)cc1 [Example 128, 4′-[(1-{[3,5-difluoro-4-(trifluoromethyl)phenyl]carbamoyl}-D-prolyl)amino][1,1′-biphenyl]-4-carboxylic acid]
14 | Cc1ccc(CNC(=O)N2CCC[C@@H]2C(=O)Nc2ccc(-c3ccc(C(=O)O)cc3)cc2)cc1F [Example 129, 4′-[(1-{[(3-fluoro-4-methylphenyl)methyl]carbamoyl}-D-prolyl)amino][1,1′-biphenyl]-4-carboxylic acid]
11 | O=C(O)c1ccc(-c2ccc(NC(=O)[C@H]3CCCN3C(=O)NCc3ccc(C(F)(F)F)c(Cl)c3)cc2)cc1 [Example 130, 4′-{[1-({[3-chloro-4-(trifluoromethyl)phenyl]methyl}carbamoyl)-D-prolyl]amino}[1,1′-biphenyl]-4-carboxylic acid]
7.8 | O=C(O)c1ccc(-c2ccc(NC(=O)[C@H]3CCCN3C(=O)NCc3ccc(C4CC4)cc3)cc2)cc1 [Example 136, 4′-[(1-{[(4-cyclopropylphenyl)methyl]carbamoyl}-D-prolyl)amino][1,1′-biphenyl]-4-carboxylic acid]
9.8 | CC(C)Cc1ccc(CNC(=O)N2CCC[C@@H]2C(=O)Nc2ccc(-c3ccc(C(=O)O)cc3)cc2)cc1 [Example 137, 4′-{[1-{{[4-(2-methylpropyl)phenyl]methyl}carbamoyl)-D-prolyl]amino}[1,1′-biphenyl]-4-carboxylic acid]
6.1 | Cc1cc(NC(=O)N2CCC[C@@H]2C(=O)Nc2ccc(-c3ccc(C(=O)O)cc3)cc2)ccc1C1CC1 [Example 144, 4′-({1-[(4-cyclopropyl-3-methylphenyl)carbamoyl]-D-prolyl}amino)[1,1′-biphenyl]-4-carboxylic acid]
